Experimental data: US8148097B2, “Screening method for identification of compounds with calcium-independent phospholipase A2β (iPLA2β) modulating activity” (Washington University, priority 2005, dated 2012)
Each block holds one compound with its values, some of them ahead of it.

Key:
[1] = target: T1, iPLA2γ (Homo sapiens, UniProt Q9NP80); settings: racemic BEL, previous work; read-out: IC50, iPLA2γ phospholipase A2 activity; cited from earlier work
T1 sequence (Q9NP80 1-782): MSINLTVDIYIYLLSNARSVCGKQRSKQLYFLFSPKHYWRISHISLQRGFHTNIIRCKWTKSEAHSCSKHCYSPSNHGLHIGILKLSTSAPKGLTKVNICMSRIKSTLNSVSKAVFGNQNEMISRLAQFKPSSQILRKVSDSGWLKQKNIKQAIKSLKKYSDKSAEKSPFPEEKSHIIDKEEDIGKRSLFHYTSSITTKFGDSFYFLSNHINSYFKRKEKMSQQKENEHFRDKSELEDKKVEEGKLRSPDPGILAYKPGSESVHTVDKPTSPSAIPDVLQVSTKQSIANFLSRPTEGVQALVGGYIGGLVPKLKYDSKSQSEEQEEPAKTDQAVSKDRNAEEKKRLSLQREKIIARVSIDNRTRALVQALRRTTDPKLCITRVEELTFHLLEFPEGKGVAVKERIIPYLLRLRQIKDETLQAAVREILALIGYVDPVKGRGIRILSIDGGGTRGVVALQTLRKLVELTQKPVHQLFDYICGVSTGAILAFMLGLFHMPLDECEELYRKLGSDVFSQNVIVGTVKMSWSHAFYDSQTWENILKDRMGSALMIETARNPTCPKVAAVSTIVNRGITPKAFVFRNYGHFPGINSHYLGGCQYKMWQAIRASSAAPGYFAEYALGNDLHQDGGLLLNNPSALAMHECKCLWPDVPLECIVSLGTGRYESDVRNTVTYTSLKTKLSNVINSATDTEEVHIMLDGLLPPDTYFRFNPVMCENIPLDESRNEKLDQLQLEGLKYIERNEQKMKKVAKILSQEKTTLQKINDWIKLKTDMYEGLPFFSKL

[2] = target: T2, iPLA2β (Cricetulus griseus, UniProt A0A3L7I2I8); assay: Cardiolipin and phospholipid hydrolysis catalyzed by iPLA2β and inhibition by BEL; assay type: biochemical; settings: iPLA2b + BEL 10 μM, 20 min 37° C.
T2 construct: (His)6; made in house; host or cells: Sf9 insect cells (baculovirus)
T2 sequence (A0A3L7I2I8 1-752 isoform A0A3L7I2I8-2): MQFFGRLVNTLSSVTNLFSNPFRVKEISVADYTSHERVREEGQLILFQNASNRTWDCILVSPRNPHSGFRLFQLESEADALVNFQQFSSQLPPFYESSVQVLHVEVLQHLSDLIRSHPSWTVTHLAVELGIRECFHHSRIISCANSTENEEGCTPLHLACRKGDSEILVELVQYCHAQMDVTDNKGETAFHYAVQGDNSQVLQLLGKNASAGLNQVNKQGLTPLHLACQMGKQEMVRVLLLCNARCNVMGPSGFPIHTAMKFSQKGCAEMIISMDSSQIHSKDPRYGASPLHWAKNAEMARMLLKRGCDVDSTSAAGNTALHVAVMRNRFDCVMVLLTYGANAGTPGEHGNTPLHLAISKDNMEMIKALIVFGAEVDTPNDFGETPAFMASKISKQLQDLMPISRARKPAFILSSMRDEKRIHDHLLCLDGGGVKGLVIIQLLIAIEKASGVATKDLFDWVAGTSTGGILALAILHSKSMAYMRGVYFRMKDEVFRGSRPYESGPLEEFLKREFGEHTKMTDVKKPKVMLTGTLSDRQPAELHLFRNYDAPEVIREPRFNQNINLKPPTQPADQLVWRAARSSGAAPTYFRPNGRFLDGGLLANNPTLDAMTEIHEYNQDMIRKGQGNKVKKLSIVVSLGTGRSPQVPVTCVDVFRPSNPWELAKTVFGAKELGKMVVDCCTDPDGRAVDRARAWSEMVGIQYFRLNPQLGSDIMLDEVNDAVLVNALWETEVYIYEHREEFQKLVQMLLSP
Procedure: (§1) Purified calcium-independent phospholipase A2 (iPLA2β) and calcium-independent phospholipase A2γ were incubated with vesicles containing 10% cardiolipin (tetra 18:1) for 20 min at 37° C.

[3] = target: T1, iPLA2γ; assay: Cardiolipin and phospholipid hydrolysis catalyzed by iPLA2γ and inhibition by BEL; assay type: biochemical; settings: iPLA2g + BEL 10 μM, 20 min 37° C.
Procedure: as §1

[4] = target: T2, iPLA2β; assay: Covalent acylation (autoacylation) of iPLA2β with [14C]-long chain acyl-CoAs; assay type: biochemical; settings: for effect of pretreatment on radiolabeling of iPLA2β with [1-14C]-oleoyl-CoA: 5 mM, 5 min at 30° C. pretreatment, FIG. 7
Procedure: FIG. 5—Equivalent amounts of the indicated [1-^14C]-acyl-CoA guests (5 mol %) were incorporated into host POPC (100 μM) vesicles and incubated for 1 hr at 37° C. with equal amounts of either wild-type (WT) iPLA2β(His)6 (peptide disclosed as SEQ ID NO: 4), S465A iPLA2β(His)6 (peptide disclosed as SEQ ID NO: 4), or BEL-pretreated WT iPLA2β(His)6 (peptide disclosed as SEQ ID NO: 4) enzyme as described in Experimental Procedures. Samples were resolved by SDS-PAGE (10% gel), fixed, and dried before visualization by autoradiography.
FIG. 6—Purified iPLA2β(His)6 (peptide disclosed as SEQ ID NO: 4) (2 μM) was incubated with the indicated concentrations of [1-^14C]-oleoyl-CoA present as guest in host POPC (100 μM) vesicles for 1 hr at 37° C. Samples were electrophoresed in parallel with standard amounts (0.5-10 nCi) of [^14C]-BSA of known activity (not shown). The fixed and dried gel was exposed to film and the resultant signals from the [^14C]-BSA were utilized to generate a standard curve utilizing ID software from a Kodak Imagestation to determine the incorporation of [1-^14C]-oleate into iPLA2β.
FIG. 7—Purified iPLA2β(His)6 (peptide disclosed as SEQ ID NO: 4) was incubated with [1-^14C]-oleoyl CoA (10 mol %) incorporated as guest in host POPC vesicles. N-ethylmaleimide and iodoacetamide samples were pretreated with 5 mM of either reagent for 5 min at 30° C. before addition of [1-^14C]-oleoyl-CoA. Samples were incubated with 1 N HCl, 1 N NaOH, or 2 N neutral hydroxylamine for 1 hr at 30° C. as indicated. All samples, except lane 1, were precipitated with CHCl3/MeOH and washed with 70% acetone before SDS-PAGE and autoradiography as described in Experimental Procedures.
FIG. 10—Purified iPLA2β(His)6 (peptide disclosed as SEQ ID NO: 4) was incubated with [1-^14C]-oleoyl CoA (10 mol %) incorporated as guest in host POPC vesicles in the presence of EGTA (5 mM), Ca^2+ (1 mM), CaM (3 μg), or Ca^2+-CaM for 1 h at 37° C. Samples were resolved by SDS-PAGE and the gel was soaked in Amplify fluorographic reagent, dried, and exposed to film as described in Experimental Procedures.
Covalent Modification of […] with [^14C]-long chain Acyl CoAs—Purified recombinant iPLA2β(His)6 (peptide disclosed as SEQ ID NO: 4) was incubated with POPC vesicles containing 10 mol % [1-^14C]-acyl-CoA for 1 h at 37° C. […] Chloroform/methanol precipitation of some samples was performed as described (66) utilizing 15 μg of bovine serum albumin as carrier. In tests to examine the nature of the covalent linkage between oleic acid and iPLA2β, acid (HCl), base (NaOH), and hydroxylamine were added to the indicated concentrations and the samples were incubated at 30° C. for 1 h. Bovine serum albumin (15 μg) and SDS-PAGE loading buffer were then added to each sample prior to dialysis against 50 mM Tris-HCl, pH 6.8 containing 10% glycerol and 1% SDS for 4 h. Samples were electrophoresed by SDS-PAGE, fixed (40% methanol containing 10% acetic acid), stained with Coomassie Blue R-250, incubated in Amplify fluorographic reagent, dried, and exposed to Kodak Biomax MR film for 2-5 days at −80° C.

[5] = target: T2, iPLA2β; assay: iPLA2β palmitoyl-CoA thioesterase (hydrolase) activity, palmitoyl-CoA guest in host vesicles; assay type: biochemical; settings: pre-incubated with purified iPLA2β(His)6; palmitoyl-CoA guest in POPC/DOPS host bilayers; read-out: IC50, iPLA2β palm-CoA hydrolase activity
Procedure: The enzyme was then added to 100 mM Tris-HCl, pH 7.2 containing 1 mM EGTA and [1-^14C]-palmitoyl-CoA guest (5 mol %) in POPC (100 μM) host vesicles for 2 min at 37° C. Following extraction into butanol, liberated [1-^14C]-palmitic acid was separated from [1-^14C]-palmitoyl-CoA by TLC and quantified by liquid scintillation spectrometry as described in Experimental Procedures.
FIG. 9—Calcium-independent iPLA2β was pre-incubated in the presence of Ca^2+ (1 mM) or Ca^2+-CaM (3 μg) on ice before addition to 95 μM POPC containing either 5 mol % [1-^14C]-POPC or [1-^14C]-palmitoyl-CoA in 100 mM Tris-HCl, pH 7.2. After incubation at 37° C. for 3 min, reactions were terminated by vortexing in the presence of butanol and released radiolabeled fatty acids were resolved by TLC and quantitated by liquid scintillation spectrometry as described in Experimental Procedures.
Phospholipase A2 and Acyl-CoA Hydrolase Enzymatic Assays—Purified recombinant iPLA2β(His)6 (peptide disclosed as SEQ ID NO: 4) (0.1-1 μg) was incubated with radiolabeled phospholipid or acyl-CoA in 25 mM Tris-HCl, pH 7.2 containing 1 mM EGTA (200 μl final volume) for 1-2 mm at 37° C. […] Incorporation of acyl-CoA into the POPC/DOPS vesicles employed was determined as described previously (64). […]

[6] = target: T2, iPLA2β; assay: iPLA2β-catalyzed acyl-CoA hydrolysis (substrate rate and selectivity); assay type: biochemical
Procedure: Reactions were terminated by vortexing with butanol and [1-^14C]-palmitic acid extracted into the butanol layer was resolved by TLC and quantified by liquid scintillation spectrometry as described in Experimental Procedures. B, iPLA2β catalyzed hydrolysis of palmitoyl-CoA guest in host POPC/DOPS vesicles. The indicated mol % of [^14C]-palmitoyl-CoA were incorporated into POPC/DOPS (90:10) vesicles (100 μM final vesicle lipid concentration). Each data point represents the average±S.E. for at least 4 separate determinations.
Released [1-^14C]-fatty acid was extracted into butanol by vortexing, resolved by TLC, and quantified by liquid scintillation spectrometry as described in Experimental Procedures. Each data point represents the average ±SE. from 8 separate determinations.
In tests using acyl-CoAs as guests in host phospholipid bilayers, radiolabeled acyl-CoAs were incorporated into POPC/DOPS (90:10 mol %) vesicles before addition to the reaction mix. […] Incorporation of acyl-CoA into the POPC/DOPS vesicles employed was determined as described previously (64). Reactions were terminated by extraction of the released radiolabeled fatty acids into 100 μl butanol, separation of fatty acids from unreacted substrate by thin layer chromatography, and quantitation by scintillation spectroscopy as previous described (65). […]

[7] = PAPC vesicles with 10 mol % tetra-18:1 CL

Compound: O=C1O/C(=C/Br)CCC1c1cccc2ccccc12 (racemic) [BEL, (E)-6-(bromomethylene)-3-(1-naphthalenyl)-2H-tetrahydropyran-2-one]
IC50 [1]: ~3000 nM | 16:0 FA [2]: 0.96 nmol/reaction | 18:1 FA [2]: 0.61 nmol/reaction | 20:4 FA [2]: 0.50 nmol/reaction | Di-18:1 LysoCL [2]: 0.15 nmol/reaction | Tri-18:1 LysoCL [2]: 0.10 nmol/reaction | Tetra-18:1 CL [2, 7]: 1.95 nmol/reaction | 16:0 FA [3]: 3.07 nmol/reaction | 18:1 FA [3]: 0.54 nmol/reaction | 20:4 FA [3]: 0.54 nmol/reaction | Di-18:1 LysoCL [3]: 0.12 nmol/reaction | Tri-18:1 LysoCL [3]: 0.14 nmol/reaction | Tetra-18:1 CL [3, 7]: 2.18 nmol/reaction | effect of BEL pretreatment on iPLA2β acylation with palmitoyl-CoA and stearoyl-CoA ([4]; BEL-pretreated iPLA2β, FIG. 5): marked increases in acylation

Compound: O=C1O/C(=C/Br)CC[C@@H]1c1cccc2ccccc12 [(R)-BEL]
IC50 [5]: 800 nM

Compound: CCN1C(=O)C=CC1=O [N-ethylmaleimide]
effect of pretreatment on radiolabeling of iPLA2β with [1-14C]-oleoyl-CoA [4]: decreased radiolabeling

Compound: NC(=O)CI [iodoacetamide]
effect of pretreatment on radiolabeling of iPLA2β with [1-14C]-oleoyl-CoA [4]: decreased radiolabeling

Compound: CCCCCCCCCCCCCCCC(=O)SCCNC(=O)CCNC(=O)[C@H](O)C(C)(C)COP(=O)(O)OP(=O)(O)OC[C@H]1O[C@@H](n2cnc3c(N)ncnc32)[C@H](O)[C@@H]1OP(=O)(O)O [palmitoyl-CoA]
maximal rate of palmitoyl-CoA thioesterase activity catalyzed by iPLA2β ([6]; at 2.5 μM palmitoyl-CoA, FIG. 1A): ≈ 250 nmol palmitic acid×min^−1×mg^−1 protein

Continued, values first:

IC50 [5]: ~100 nM
Compound: O=C1O/C(=C/Br)CC[C@H]1c1cccc2ccccc12 [(S)-BEL]

inhibition of iPLA2β by high concentrations of CoASH [6]: not inhibited
Compound: CC(C)(COP(=O)(O)OP(=O)(O)OC[C@H]1O[C@@H](n2cnc3c(N)ncnc32)[C@H](O)[C@@H]1OP(=O)(O)O)[C@@H](O)C(=O)NCCC(=O)NCCS [CoASH]

signal intensity of iPLA2β acylation, fold less than with [1-14C]-oleoyl-CoA ([4]; wild-type iPLA2β, FIG. 5): ≈ 25 fold
Compound: CCCCC/C=C\C/C=C\C/C=C\C/C=C\CCC[14C](=O)SCCNC(=O)CCNC(=O)[C@H](O)C(C)(C)COP(=O)(O)OP(=O)(O)OC[C@H]1O[C@@H](n2cnc3c(N)ncnc32)[C@H](O)[C@@H]1OP(=O)(O)O [[1-^14C]-arachidonoyl-CoA]
